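All cell lines were grown in 96-well plates and treated with compound for 48 hours. GI50 marks 50% less growth. TGI marks complete inhibition of growth.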
Columns and labels:
Assay in all cases: NCI tumour cell line growth inhibition, 48 h
[1] = tested on: KM12 colon
[2] = tested on: ACHN renal
[3] = tested on: HOP-92 NSCLC
[4] = tested on: K-562 leukemia
[5] = tested on: U251 CNS
[6] = tested on: SK-MEL-28 melanoma
[7] = tested on: HT29 colon
[8] = tested on: UACC-62 melanoma
[9] = tested on: MDA-MB-231 breast
[10] = tested on: CCRF-CEM leukemia

COc1cccc(C=Nc2cc(C)ccn2)c1O.COc1cccc(C=Nc2cc(C)ccn2)c1O.[Cu]
GI50 [1]: 18.5 µM | TGI [1]: 52.5 µM | GI50 [2]: 22.3 µM | TGI [2]: 43.8 µM | GI50 [3]: 30.3 µM | TGI [3]: 50.6 µM | GI50 [4]: 18.2 µM | TGI [4]: 68.1 µM | GI50 [5]: 15.7 µM | TGI [5]: 51.1 µM | GI50 [6]: 21.7 µM | TGI [6]: 48 µM | GI50 [7]: 23.1 µM | TGI [7]: 52.4 µM | GI50 [8]: 15.8 µM | TGI [8]: 31.9 µM | GI50 [9]: 23.2 µM | TGI [9]: 50.4 µM | GI50 [10]: 6.01 µM | TGI [10]: 32.1 µM

CC(C)(C)c1ccc(OCCCCCCN2CCNCC2)cc1
GI50 [1]: 3.89 µM | TGI [1]: 13.8 µM | GI50 [2]: 5.01 µM | TGI [2]: 17.5 µM | GI50 [3]: 3.31 µM | TGI [3]: 19.7 µM | GI50 [4]: 1.75 µM | TGI [4]: 4.48 µM | GI50 [5]: 3.32 µM | TGI [5]: 13.2 µM | GI50 [6]: 3.23 µM | TGI [6]: 11.4 µM | GI50 [7]: 2.64 µM | TGI [7]: 10.5 µM | GI50 [8]: 2.33 µM | TGI [8]: 5.77 µM | GI50 [9]: 2.53 µM | TGI [9]: 7.97 µM | GI50 [10]: 2.88 µM | TGI [10]: 12 µM

N=C(N)c1ccc(N2CCCN(c3ccc(C(=N)N)cc3)CC2)cc1
GI50 [1]: 62.1 µM | TGI [1]: > 100 µM | GI50 [2]: > 100 µM | TGI [2]: > 100 µM | GI50 [3]: 89.6 µM | TGI [3]: > 100 µM | GI50 [4]: 89.6 µM | TGI [4]: > 100 µM | GI50 [5]: 47.7 µM | TGI [5]: > 100 µM | GI50 [6]: > 100 µM | TGI [6]: > 100 µM | GI50 [7]: 74.5 µM | TGI [7]: > 100 µM | GI50 [8]: 89 µM | TGI [8]: > 100 µM | GI50 [9]: > 100 µM | TGI [9]: > 100 µM | GI50 [10]: > 100 µM | TGI [10]: > 100 µM

CCN=C1C=CC(=C(c2ccc(N)cc2)c2ccc(N(CC)CC)c(C)c2)C=C1
GI50 [1]: 0.296 µM | TGI [1]: 1.09 µM | GI50 [2]: 0.422 µM | TGI [2]: 2.66 µM | GI50 [3]: 0.182 µM | TGI [3]: 0.543 µM | GI50 [4]: 0.259 µM | TGI [4]: 1.72 µM | GI50 [5]: 0.124 µM | TGI [5]: 1.59 µM | GI50 [6]: 0.394 µM | TGI [6]: 1.96 µM | GI50 [7]: 0.271 µM | TGI [7]: 1.2 µM | GI50 [8]: 0.248 µM | TGI [8]: 0.866 µM | GI50 [9]: 0.219 µM | TGI [9]: 0.654 µM | GI50 [10]: 0.306 µM | TGI [10]: 5.35 µM

CC(C)(C)c1n[nH]c(=S)n(/N=C/c2ccc(F)c(Oc3ccccc3)c2)c1=O
GI50 [1]: 35.9 µM | TGI [1]: > 100 µM | GI50 [2]: 33.8 µM | TGI [2]: > 100 µM | GI50 [3]: 27.3 µM | TGI [3]: > 100 µM | GI50 [4]: 42.1 µM | TGI [4]: > 100 µM | GI50 [5]: 39.2 µM | TGI [5]: > 100 µM | GI50 [6]: 20.7 µM | TGI [6]: > 100 µM | GI50 [7]: 43.4 µM | TGI [7]: > 100 µM | GI50 [8]: 38.2 µM | TGI [8]: > 100 µM | GI50 [9]: 34.6 µM | TGI [9]: > 100 µM | GI50 [10]: 32.7 µM | TGI [10]: > 100 µM

C=CC(=O)N1CCN(c2ccc3cccc(NC(=O)c4cnc(C)cn4)c3n2)CC1
GI50 [1]: 2.84 µM | TGI [1]: 19 µM | GI50 [2]: 0.656 µM | TGI [2]: > 100 µM | GI50 [3]: 2.68 µM | TGI [3]: > 100 µM | GI50 [4]: 3.6 µM | TGI [4]: > 100 µM | GI50 [5]: 3.85 µM | TGI [5]: 36.4 µM | GI50 [6]: 7.88 µM | TGI [6]: 20.5 µM | GI50 [7]: 4.05 µM | TGI [7]: > 100 µM | GI50 [8]: 2.46 µM | TGI [8]: 15.6 µM | GI50 [9]: 3.5 µM | TGI [9]: > 100 µM | GI50 [10]: 2.08 µM | TGI [10]: 8.29 µM

O[C@H]1CO[C@H]2[C@@H]1OC[C@@H]2Oc1ccc(Nc2ccnc(Nc3ccc(O[C@H]4CO[C@H]5[C@@H]4OC[C@@H]5O)c(Cl)c3)n2)cc1Cl
GI50 [1]: 1.36 µM | TGI [1]: 3.48 µM | GI50 [2]: 2.8 µM | TGI [2]: 10.6 µM | GI50 [3]: 1.52 µM | TGI [3]: 3.15 µM | GI50 [4]: 1.27 µM | TGI [4]: 18.4 µM | GI50 [5]: 1.62 µM | TGI [5]: 4.02 µM | GI50 [6]: 3.04 µM | TGI [6]: 11.6 µM | GI50 [7]: 2.48 µM | TGI [7]: 15.4 µM | GI50 [8]: 1.11 µM | TGI [8]: 2.75 µM | GI50 [9]: 1.81 µM | TGI [9]: 6.04 µM | GI50 [10]: 0.666 µM | TGI [10]: 5.31 µM

Cc1cc2c3ccc(C)[n+](C)c3ccc2n1C
GI50 [1]: 0.723 µM | TGI [1]: 3.46 µM | GI50 [2]: 21.5 µM | TGI [2]: > 100 µM | GI50 [3]: 1.97 µM | TGI [3]: 19.6 µM | GI50 [4]: 1.52 µM | TGI [4]: > 100 µM | GI50 [5]: 1.9 µM | TGI [5]: 15.1 µM | GI50 [6]: 6.05 µM | TGI [6]: 19.5 µM | GI50 [7]: 3.07 µM | TGI [7]: 23.8 µM | GI50 [8]: 8.97 µM | TGI [8]: 22.6 µM | GI50 [9]: 5.14 µM | TGI [9]: 55.3 µM

CC1=C(CCC(C)N(C)Cc2ccc(OCCCN3CCCC3)cc2)C(C)(C)CCC1 (stereo unspecified)
GI50 [1]: 4.6 µM | TGI [1]: 17.7 µM | GI50 [2]: 3.29 µM | TGI [2]: 11.3 µM | GI50 [3]: 2.83 µM | TGI [3]: 13.1 µM | GI50 [4]: 1.67 µM | TGI [4]: 4.06 µM | GI50 [5]: 2.46 µM | TGI [5]: 6.38 µM | GI50 [6]: 1.68 µM | TGI [6]: 3.5 µM | GI50 [7]: 0.764 µM | TGI [7]: 6.94 µM | GI50 [8]: 2.11 µM | TGI [8]: 4.17 µM | GI50 [9]: 1.89 µM | TGI [9]: 4.48 µM | GI50 [10]: 2.66 µM | TGI [10]: 11.6 µM

CNC(=O)OCc1c(COC(=O)NC)c(C)n(-c2ccc(Br)cc2)c1C
TGI [1]: 30.8 µM | TGI [2]: 12.7 µM | TGI [3]: 31 µM | TGI [4]: 95.1 µM | TGI [5]: 25.5 µM | TGI [6]: 35.2 µM | TGI [7]: 22.4 µM | TGI [8]: 18.5 µM | TGI [9]: 30.5 µM | TGI [10]: 48.2 µM

C=CC(=O)N(C)[C@H]1C[C@H]2OC(C)(C1OC)n1c3ccccc3c3c4c(c5c6ccccc6n2c5c31)C(=O)NC4 (stereo partly specified)
GI50 [1]: 0.0228 µM | TGI [1]: 0.79 µM | GI50 [2]: 0.139 µM | TGI [2]: > 50 µM | GI50 [3]: 0.0402 µM | TGI [3]: 0.266 µM | GI50 [4]: 0.233 µM | TGI [4]: > 50 µM | GI50 [5]: 0.123 µM | TGI [5]: 0.913 µM | GI50 [6]: 0.369 µM | TGI [6]: 2.08 µM | GI50 [7]: 0.178 µM | TGI [7]: 2.7 µM | GI50 [8]: 0.13 µM | TGI [8]: 0.835 µM | GI50 [9]: 0.0783 µM | TGI [9]: 1.04 µM | GI50 [10]: 0.0337 µM | TGI [10]: 1.35 µM

C[C@]12CC[C@H]3[C@@H](CCC4=CC(=O)CC[C@@H]43)[C@@H]1CC[C@@H]2OC(=O)CCc1ccccc1
GI50 [1]: 19.8 µM | TGI [1]: 43 µM | GI50 [2]: 18.9 µM | TGI [2]: 45.1 µM | GI50 [3]: 20.1 µM | TGI [3]: 64.4 µM | GI50 [4]: 18.8 µM | TGI [4]: > 69 µM | GI50 [5]: 15.1 µM | TGI [5]: 28.4 µM | GI50 [6]: 16.8 µM | TGI [6]: 37 µM | GI50 [7]: 18.2 µM | TGI [7]: 56.5 µM | GI50 [8]: 9.64 µM | TGI [8]: 35.7 µM | GI50 [9]: 18.9 µM | TGI [9]: 42.2 µM | GI50 [10]: 17.2 µM | TGI [10]: 43.5 µM

Cc1ccc(-c2cc(-c3ccc(C)cc3)nc(NCCNc3ccnc4cc(Cl)ccc34)n2)cc1
GI50 [1]: 1.75 µM | TGI [1]: 3.38 µM | GI50 [2]: 1.68 µM | TGI [2]: 3.13 µM | GI50 [3]: 1.23 µM | TGI [3]: 2.73 µM | GI50 [4]: 1.82 µM | TGI [4]: 4.5 µM | GI50 [5]: 1.72 µM | TGI [5]: 3.36 µM | GI50 [6]: 1.76 µM | TGI [6]: 3.38 µM | GI50 [7]: 1.74 µM | TGI [7]: 3.37 µM | GI50 [8]: 1.77 µM | TGI [8]: 3.38 µM | GI50 [9]: 1.88 µM | TGI [9]: 3.67 µM

Source: PubChem BioAssay (NCI)
